Assay [1] addresses T1, Adenosine receptor A1 (Rattus norvegicus, UniProt P25099).
T1 sequence (P25099 whole entry): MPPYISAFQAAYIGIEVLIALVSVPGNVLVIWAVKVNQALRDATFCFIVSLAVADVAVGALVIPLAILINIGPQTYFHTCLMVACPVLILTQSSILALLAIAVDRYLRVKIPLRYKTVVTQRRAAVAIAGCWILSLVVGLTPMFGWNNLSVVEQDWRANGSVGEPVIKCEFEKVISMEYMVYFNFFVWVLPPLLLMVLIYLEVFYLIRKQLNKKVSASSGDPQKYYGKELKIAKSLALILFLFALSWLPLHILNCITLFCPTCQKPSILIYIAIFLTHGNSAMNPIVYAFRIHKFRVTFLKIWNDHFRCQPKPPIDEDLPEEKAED
Put plainly: Potency against rat brain A1 adenosine receptor.

The target of assay [2] is Adenosine A2 receptor (Rattus norvegicus, UniProt P29276+P30543). The assay is described as follows: Potency against PC12 cell A2 adenosine receptor by adenylate cyclase activation. The settings on record: pc-12. Format: cell-based.
For assay [3], the target named is T1, Adenosine receptor A1. The assay is described as follows: Potency against rat brain adenosine A1 receptor.
For assay [4], the target named is Adenosine A2 receptor (Homo sapiens, UniProt P29275+P29274). Put plainly: Potency against human platelet A2 adenosine receptor.
For assay [5], the target named is T2, Adenosine receptor A1 (Rattus norvegicus) (UniProt P25099).
T2 sequence (whole entry): T1 sequence (P25099 whole entry)
Put plainly: Potency against rat brain adenosine A1 receptor at 10 uM.

For `CCC(CC)Nc1ncnc2c1ncn2C1O[C@H](C(=O)NC2CC2)[C@@H](O)[C@H]1O` (some centres undefined), the half-inhibitory concentration (IC50) (usually the point on the concentration scale where inhibition reaches its midpoint) in assay [1] came out at 0.002 µM. Besides, the EC50 – broadly, the concentration that produces a half-maximal response – in assay [2] was 0.54 µM.
In assay [3], `CCNC(=O)[C@H]1O[C@@H](n2cnc3c(N[C@@H](CC)Cc4ccccc4)ncnc32)[C@H](O)[C@@H]1O` showed a 50% inhibitory concentration (IC50) of 0.026 µM.
For the compound `CCC(CC)Nc1ncnc2c1ncn2C1O[C@H](C(=O)NC(C)C)[C@@H](O)[C@H]1O` (some centres undefined), the half-inhibitory concentration (IC50) in assay [1] was found to be 0.011 µM. This compound also came in with an EC50 in assay [2] of 5.1 µM.
`CCC(CC)Nc1ncnc2c1ncn2C1O[C@H](C(=O)N(CC)CC)[C@@H](O)[C@H]1O` (some centres undefined) displayed an EC50 in assay [2] of more than 100 µM. Also, in assay [3], 1.7 µM corresponded to half-maximal inhibition (IC50).
Take `CCNC(=O)[C@H]1OC(n2cnc3c(N(C)C)ncnc32)[C@H](O)[C@@H]1O` (some centres undefined): the half-maximal effective concentration (EC50) in assay [4] and in assay [2] was more than 100 µM in each case. The midpoint of inhibition in assay [3], the IC50, lay at 10 µM.
With `CCC(CC)Nc1ncnc2c1ncn2C1O[C@H](C(=O)N(C)C)[C@@H](O)[C@H]1O` (some centres undefined), the EC50 in assay [2] is more than 100 µM. Also, in assay [3], the IC50 was determined as 13 µM.
Consider `O=C([C@H]1OC(n2cnc3c(N4CCCCC4)ncnc32)[C@H](O)[C@@H]1O)N1CCCCC1` (some centres undefined), for which the concentration giving a half-maximal response (EC50) in assay [2] is more than 100 µM. Further, the inhibition (in general, the drop in the measured response relative to a control, in per cent) in assay [5] worked out at 0%.
In assay [2], `CCNC(=O)[C@H]1OC(n2cnc3c(NC4CCCCC4)ncnc32)[C@H](O)[C@@H]1O` (some centres undefined) showed an EC50 of 1.83 µM.
In assay [2], `CCC(CC)Nc1ncnc2c1ncn2C1O[C@H](C(=O)NCc2ccccc2)[C@@H](O)[C@H]1O` (some centres undefined) returned an EC50 of more than 100 µM. In assay [3], this compound displayed an IC50 of 0.104 µM.
`Nc1ncnc2c1ncn2[C@@H]1O[C@H](C(=O)NC2CC2)[C@@H](O)[C@H]1O`: the EC50 in assay [4] amounted to 0.26 µM.
Turning to `CCNC(=O)[C@H]1O[C@@H](n2cnc3c(N[C@H](C)Cc4ccccc4)ncnc32)[C@H](O)[C@@H]1O`, the half-maximal effective concentration (EC50) in assay [4] was 3.1 µM; in assay [2], 0.98 µM. For the same compound, half-maximal inhibition in assay [3] (IC50) required 0.0024 µM.
Compound `CCC(CC)NC(=O)[C@H]1OC(n2cnc3c(NC(CC)CC)ncnc32)[C@H](O)[C@@H]1O` (some centres undefined) returned an EC50 in assay [2] of more than 100 µM. Moreover, in assay [3], the IC50 is 1.4 µM.
The matching figures for `C=CCNC(=O)[C@H]1OC(n2cnc3c(NC(CC)CC)ncnc32)[C@H](O)[C@@H]1O` (some centres undefined): 8.9 µM and 0.017 µM.
As for `CNC(=O)[C@H]1O[C@@H](n2cnc3c(N)ncnc32)[C@H](O)[C@@H]1O`, in assay [4], the EC50 was 1.7 µM. The compound further gave an IC50 in assay [3] of 0.105 µM.
In turn, `CCC(CC)Nc1ncnc2c1ncn2C1O[C@H](C(=O)NC)[C@@H](O)[C@H]1O` (some centres undefined) yielded an EC50 in assay [2] of 6.4 µM. The IC50 in assay [3] came to 0.02 µM.
Regarding `CCNC(=O)[C@H]1O[C@@H](n2cnc3c(N[C@H](CC)Cc4ccccc4)ncnc32)[C@H](O)[C@@H]1O`, in assay [3], the 50% inhibitory concentration (IC50) came to 0.00052 µM.
Take `CCCCN(C)C(=O)[C@H]1OC(n2cnc3c(NC(CC)CC)ncnc32)[C@H](O)[C@@H]1O` (some centres undefined): the 50% effective concentration (EC50) in assay [2] was more than 100 µM.
For `NC(=O)[C@H]1OC(n2cnc3c(N)ncnc32)[C@H](O)[C@@H]1O` (some centres undefined), the EC50 in assay [4] worked out at 5.7 µM; in assay [2], 1.56 µM. Moreover, the IC50 in assay [3] worked out at 0.07 µM.
